# Test results reported in patent US20040063790A1, “Methods for inhibition of angiogenesis” (The Scripps Research Institute, priority 1996, published 2004).
# Where a SMILES comes first, the peptide text is derived from it. [ ]: non-standard residue; d: D form.
# B1: LM609: monoclonal antibody specific for αvβ3 (anti-αvβ3) (antibody, V domains shown)
# VH: EVQLEESGGGLVKPGGSLKLSCAASGFAFSSYDMSWVRQIPEKRLEWVAKVSSGGGSTYYLDTVQGRFTISRDNAKNTLYLQMSSLNSEDTAMYYCARHNYGSFAYWGQGTLVTVSA
# VL: ELVMTQTPATLSVTPGDSVSLSCRASQSISNHLHWYQQKSHESPRLLIKYASQSISGIPSRFSGSGSGTDFTLSINSVETEDFGMYFCQQSNSWPHTFGGGTKLEIKRA
# Key:
# [1] = tested on: tumor-induced angiogenesis; experiment: CAM assay, tumor-induced angiogenesis, intravenous application; format: in vivo, chick; details: intravenous injection
# Description: Angiogenesis was induced in the CAM assay system by direct apposition of a tumor fragment on the CAM. Preparation of the chick embryo CAM was identical to the procedure described above. Instead of a filter paper disk, a 50 milligram (mg) to 55 mg in weight fragment of one of human melanoma tumor M21-L, human lung carcinoma tumor UCLAP-3, human pancreatic carcinoma cell line FG (Cheresh et al., Cell 58:945-953, 1989), or human laryngeal carcinoma cell line HEp3, all of which are αvβ3 negative tumors, was placed on the CAM in an area originally devoid of blood vessels.
# The M21-L human melanoma cell line, UCLAP-3 human lung carcinoma cell line, FG pancreatic carcinoma cell line, or HEp3 human laryngeal carcinoma cell line, all αvβ3 negative, were used to grow the solid human tumors on the CAMs of chick embryos. A single cell suspension of 8×10^6 M21-L, UCLAP-3, and FB or 5×10^5 HEp3 cells was first applied to the CAMs in a total volume of 30 μl of sterile HBSS. The windows were sealed with tape and the embryos were incubated for 7 days to allow growth of human tumor lesions. At the end of 7 days, now a 17-day embryo, the tumors were resected from the CAMs and trimmed free of surrounding CAM tissue. […]
# The effects of peptide exposure to tumor-induced vasculature in the CAM assay system was also assessed. […]
# [2] = tested on: bFGF-induced angiogenesis; experiment: CAM assay, growth factor-induced angiogenesis, topical application; format: in vivo, chick; details: 80 μg peptide topically at 0, 24 and 48 hrs; viewed at 72 hours
# Description: J. Pathol., 79:597 (1975). CAMs were prepared from chick embryos for subsequent induction of angiogenesis and inhibition thereof as described in Examples 4 and 5, respectively. Ten day old chick embryos were obtained from McIntyre Poultry (Lakeside, Calif.) and incubated at 37° C. with 60% humidity. A small hole was made through the shell at the end of the egg directly over the air sac with the use of a small crafts drill (Dremel, Division of Emerson Electric Co. Racine Wis.). A second hole was drilled on the broad side of the egg in a region devoid of embryonic blood vessels determined previously by candling the egg. […]
# Angiogenesis was induced by placing a 5 millimeter (mm)×5 mm Whatman filter disk (Whatman Filter paper No.1) saturated with Hanks Balanced Salt Solution (HBSS, GIBCO, Grand Island, N.Y.) or HBSS containing 150 nanograms/milliliter (ng/ml) recombinant basic fibroblast growth factor (bFGF) (Genzyme, Cambridge, Mass.) on the CAM of a 10-day chick embryo in a region devoid of blood vessels and the windows were latter sealed with tape. […] For assays where inhibition of angiogenesis ws evaluated with intravenous injections of antagonists, angiogenesis was first induced with 1-2 μg/ml bFGF in fibroblast growth medium. Angiogenesis was monitored by photomicroscopy after 72 hours. […]
# Quantification was performed in a double blind manner by at least two independent observers. […]
# [3] = target: T1, αIIbβ3 (Homo sapiens, UniProt P05106+P08514); experiment: Ligand-receptor binding assay, immobilized αIIbβ3; details: radiolabeled fibrinogen; average of duplicate data points ± standard deviation; read-out: αIIbβ3 (IC50 μM)
# T1 construct: selected purified integrins were separately immobilized in Titertek microtiter wells
# Excerpt: (§1) Herein described is a method of identifying antagonists in a ligand-receptor binding assay in which the receptor is immobilized to a solid support and the ligand and antagonist are soluble. Also described is a ligand-receptor binding assay in which the ligand is immobilized to a solid support and the receptor and antagonists are soluble.
# (§2) Briefly, selected purified integrins were separately immobilized in Titertek microtiter wells at a coating concentration of 50 nanograms (ng) per well. The purification of the receptors used in the ligand-receptor binding assays are well known in the art and are readily obtainable with methods familiar to one of ordinary skill in the art. After incubation for 18 hours at 4° C., nonspecific binding sites on the plate were blocked with 10 milligrams/milliliter (mg/ml) of bovine serum albumin (BSA) in Tris-buffered saline. […] Radiolabeled ligands were used at concentrations of 1 nM and binding was challenged separately with unlabeled synthetic peptides.
# (§3) Following a three hour incubation, free ligand was removed by washing and bound ligand was detected by gamma counting. […] The IC50 data in micromoles (IC50 μM) are expressed as the average of duplicate data points±the standard deviation as shown in Table 2.
# [4] = target: T2, αvβ3 (Homo sapiens, UniProt P05106+P06756); experiment: Ligand-receptor binding assay, immobilized αvβ3
# T2 construct: selected purified integrins were separately immobilized in Titertek microtiter wells
# Excerpt: as §1, §2, §3
# [5] = target: αvβ3 integrin (Homo sapiens, UniProt P05106+P06756); details: Pfaff et al. 1994; not to the αIIbβ3 or α5β1 integrins; cited from earlier work
# [6] = tested on: retinal neovascularization; details: Hammes et al., Nature Med. 1996; cited from earlier work
# [7] = tested on: M21-L melanoma tumor; experiment: In vivo chimeric mouse:human assay; set-up: species or system SCID mouse; details: intravenous, FIG. 18
# Description: An in vivo chimeric mouse:human model was generated by replacing a portion of skin from a SCID mouse with human neonatal foreskin (FIG. 4). After the skin graft was established, the human foreskin was inoculated with carcinoma cells. After a measurable tumor was established, either an αvβ3 antagonist or PBS was injected into the mouse tail vein. Following a 2-3 week period, the tumor was excised and analyzed by weight and histology.
# The in vivo chimeric mouse:human model is prepared essentially as described in Yan, et al., J. Clin. Invest., 91:986-996 (1993). Briefly, a 2 cm^2 square area of skin was surgically removed from a SCID mouse (6-8 weeks of age) and replaced with a human foreskin. The mouse was anesthetized and the hair removed from a 5 cm^2 area on each side of the lateral abdominal region by shaving. Two circular graft beds of 2 cm^2 were prepared by removing the full thickness of skin down to the fascia. Full thickness human skin grafts of the same size derived from human neonatal foreskin were placed onto the wound beds and sutured into place. […]
# In a procedure similar to that described above for monoclonal antibodies, peptide antagonists of αvβ3 were injected intravenously into the tail vein of SCID mice having measurable M21-L tumors. […] The mean volume and weight of resected tumors following treatment were determined with the results respectively shown in FIGS. 19A and 19B.
# T2 sequence (P06756 31-889 limits assumed): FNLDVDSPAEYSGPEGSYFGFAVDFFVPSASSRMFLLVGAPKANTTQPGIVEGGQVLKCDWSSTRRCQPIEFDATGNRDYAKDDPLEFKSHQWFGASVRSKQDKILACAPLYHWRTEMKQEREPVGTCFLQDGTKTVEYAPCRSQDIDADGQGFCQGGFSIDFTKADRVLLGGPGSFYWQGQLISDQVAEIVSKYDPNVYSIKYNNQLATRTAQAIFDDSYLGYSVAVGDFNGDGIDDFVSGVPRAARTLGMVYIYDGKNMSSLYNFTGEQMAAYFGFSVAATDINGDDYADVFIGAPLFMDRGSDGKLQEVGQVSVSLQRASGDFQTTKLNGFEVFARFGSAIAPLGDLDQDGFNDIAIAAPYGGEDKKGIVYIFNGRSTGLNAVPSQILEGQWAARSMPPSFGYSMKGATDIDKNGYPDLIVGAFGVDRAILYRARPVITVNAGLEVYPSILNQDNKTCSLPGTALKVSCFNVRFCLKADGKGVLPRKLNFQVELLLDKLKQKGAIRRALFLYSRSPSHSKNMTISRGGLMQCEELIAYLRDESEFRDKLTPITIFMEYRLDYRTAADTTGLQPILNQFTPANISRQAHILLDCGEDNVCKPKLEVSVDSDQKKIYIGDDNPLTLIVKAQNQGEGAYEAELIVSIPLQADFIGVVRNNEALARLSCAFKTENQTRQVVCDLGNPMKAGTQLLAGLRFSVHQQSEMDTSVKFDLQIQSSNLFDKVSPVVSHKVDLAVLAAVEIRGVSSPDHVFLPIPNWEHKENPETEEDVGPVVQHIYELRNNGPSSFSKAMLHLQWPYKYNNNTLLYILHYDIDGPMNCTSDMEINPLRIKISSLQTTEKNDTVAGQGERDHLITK
# T2 sequence (P06756 891-1048 partner limits assumed): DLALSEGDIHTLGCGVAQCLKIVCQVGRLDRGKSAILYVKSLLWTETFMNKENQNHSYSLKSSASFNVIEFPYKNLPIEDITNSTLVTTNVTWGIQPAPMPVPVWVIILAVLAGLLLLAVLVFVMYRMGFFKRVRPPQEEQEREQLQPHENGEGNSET
# T2 sequence (P05106 27-788): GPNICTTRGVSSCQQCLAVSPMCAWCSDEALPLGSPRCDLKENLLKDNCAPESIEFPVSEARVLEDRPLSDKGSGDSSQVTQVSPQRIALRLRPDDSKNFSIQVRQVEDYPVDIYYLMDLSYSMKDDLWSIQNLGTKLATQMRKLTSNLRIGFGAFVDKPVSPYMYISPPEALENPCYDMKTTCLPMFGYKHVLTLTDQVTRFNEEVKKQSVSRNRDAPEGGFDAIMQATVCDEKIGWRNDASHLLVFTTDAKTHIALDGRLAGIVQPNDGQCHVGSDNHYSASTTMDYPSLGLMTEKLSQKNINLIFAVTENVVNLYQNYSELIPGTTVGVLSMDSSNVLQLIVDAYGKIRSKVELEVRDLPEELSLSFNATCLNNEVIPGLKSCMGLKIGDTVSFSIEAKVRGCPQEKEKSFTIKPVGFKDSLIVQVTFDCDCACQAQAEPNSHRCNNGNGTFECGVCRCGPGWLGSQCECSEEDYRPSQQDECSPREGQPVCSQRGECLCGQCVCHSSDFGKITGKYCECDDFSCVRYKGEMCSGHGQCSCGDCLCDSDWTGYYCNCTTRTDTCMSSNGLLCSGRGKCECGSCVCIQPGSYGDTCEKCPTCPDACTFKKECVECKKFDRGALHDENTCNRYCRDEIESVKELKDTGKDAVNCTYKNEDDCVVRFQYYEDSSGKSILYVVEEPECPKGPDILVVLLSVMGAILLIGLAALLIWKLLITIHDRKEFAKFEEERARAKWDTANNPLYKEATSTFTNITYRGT
# T1 sequence (P08514 32-887 limits assumed): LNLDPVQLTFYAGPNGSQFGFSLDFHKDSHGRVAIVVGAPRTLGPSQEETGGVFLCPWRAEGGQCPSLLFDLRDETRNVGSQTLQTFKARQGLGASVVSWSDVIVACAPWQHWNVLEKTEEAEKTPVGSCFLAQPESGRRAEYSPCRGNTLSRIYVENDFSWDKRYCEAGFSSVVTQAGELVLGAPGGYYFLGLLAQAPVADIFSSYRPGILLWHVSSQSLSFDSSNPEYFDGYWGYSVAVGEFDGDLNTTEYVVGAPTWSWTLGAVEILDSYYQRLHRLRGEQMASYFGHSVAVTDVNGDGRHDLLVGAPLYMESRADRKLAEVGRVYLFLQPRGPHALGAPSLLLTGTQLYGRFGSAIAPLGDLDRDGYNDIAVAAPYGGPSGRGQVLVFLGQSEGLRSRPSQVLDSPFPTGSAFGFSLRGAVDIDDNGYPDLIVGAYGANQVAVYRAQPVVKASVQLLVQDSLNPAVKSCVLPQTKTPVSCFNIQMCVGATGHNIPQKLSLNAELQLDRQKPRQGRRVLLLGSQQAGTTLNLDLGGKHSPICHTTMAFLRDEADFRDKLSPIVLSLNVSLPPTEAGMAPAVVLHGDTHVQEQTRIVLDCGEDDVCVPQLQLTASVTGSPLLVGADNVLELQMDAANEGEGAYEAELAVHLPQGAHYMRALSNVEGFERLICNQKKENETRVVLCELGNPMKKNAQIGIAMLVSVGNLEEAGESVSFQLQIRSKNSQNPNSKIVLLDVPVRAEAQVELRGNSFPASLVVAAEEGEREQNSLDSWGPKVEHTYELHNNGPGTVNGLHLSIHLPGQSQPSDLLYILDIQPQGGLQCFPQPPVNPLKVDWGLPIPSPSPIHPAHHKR
# T1 sequence (P08514 891-1039 partner limits assumed): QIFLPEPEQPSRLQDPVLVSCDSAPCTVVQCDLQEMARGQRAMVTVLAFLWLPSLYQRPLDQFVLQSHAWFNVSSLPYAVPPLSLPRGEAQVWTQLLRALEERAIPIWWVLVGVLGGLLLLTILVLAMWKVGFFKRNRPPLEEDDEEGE
# T1 sequence (P05106 27-788): as the sequence (P05106 27-788) above
# Chain of αvβ3 integrin (P06756 31-889 limits assumed): as the sequence (P06756 31-889 limits assumed) above
# Chain of αvβ3 integrin (P06756 891-1048 partner limits assumed): as the sequence (P06756 891-1048 partner limits assumed) above
# Chain of αvβ3 integrin (P05106 27-788): as the sequence (P05106 27-788) above
molecule,measurement,setting,value
"CC(C)[C@@H]1NC(=O)[C@@H](Cc2ccccc2)NC(=O)[C@H](CC(=O)O)NC(=O)CNC(=O)[C@H](CCCNC(=N)N)NC1=O [Peptide 62184, cyclo (RGDfV)]",inhibition of tumor-induced blood vessel formation,[1],demonstrated to inhibit angiogenesis
same,effect on bFGF-induced blood vessel formation,[2],formation of blood vessels was inhibited
"CC(C)[C@@H]1NC(=O)[C@H](Cc2ccccc2)NC(=O)[C@H](CC(=O)O)NC(=O)[C@@H](C)NC(=O)[C@H](CCCNC(=N)N)NC1=O [Peptide 62186, cyclo (RaDFV)] (cyclo(R[dA]DFV))",IC50,[3],100 ± 0.001 µM
same,effect on bFGF-induced blood vessel formation,[2],remained undisturbed
same,"preference of inhibition of fibrinogen binding, αvβ3 versus αIIbβ3",[4]; comparison of half-maximal concentrations of Table 2,either not as effective in blocking fibrinogen binding to αvβ3 or exhibited preferential inhibition of fibrinogen binding to αIIbβ3
same,IC50,"[4]; radiolabeled fibrinogen, average of duplicate data points ± standard deviation, read-out: αvβ3 (IC50 μM)",57.5 ± 7.84 µM
cyclic RGDfV,inhibition of fibrinogen binding to integrins,[5],specifically inhibited binding of fibrinogen to the αvβ3 integrin
same,inhibition of retinal neovascularization,[6],inhibited retinal neovascularization
B1,tumor volume,[7],approximately 60 mm^3
